What all share (type): biochemical
In one experiment the target is LCK (Homo sapiens, UniProt P06239). Kind of experiment: Inhibition of a panel of kinases, in vitro HotSpot kinase assay: LCK. The settings on record: D-compounds panel data; 1 μM ATP; read-out: IC50 LCK.
The next experiment addresses T1, TEC (Homo sapiens, UniProt P42680).
T1 sequence (P42680 1-631): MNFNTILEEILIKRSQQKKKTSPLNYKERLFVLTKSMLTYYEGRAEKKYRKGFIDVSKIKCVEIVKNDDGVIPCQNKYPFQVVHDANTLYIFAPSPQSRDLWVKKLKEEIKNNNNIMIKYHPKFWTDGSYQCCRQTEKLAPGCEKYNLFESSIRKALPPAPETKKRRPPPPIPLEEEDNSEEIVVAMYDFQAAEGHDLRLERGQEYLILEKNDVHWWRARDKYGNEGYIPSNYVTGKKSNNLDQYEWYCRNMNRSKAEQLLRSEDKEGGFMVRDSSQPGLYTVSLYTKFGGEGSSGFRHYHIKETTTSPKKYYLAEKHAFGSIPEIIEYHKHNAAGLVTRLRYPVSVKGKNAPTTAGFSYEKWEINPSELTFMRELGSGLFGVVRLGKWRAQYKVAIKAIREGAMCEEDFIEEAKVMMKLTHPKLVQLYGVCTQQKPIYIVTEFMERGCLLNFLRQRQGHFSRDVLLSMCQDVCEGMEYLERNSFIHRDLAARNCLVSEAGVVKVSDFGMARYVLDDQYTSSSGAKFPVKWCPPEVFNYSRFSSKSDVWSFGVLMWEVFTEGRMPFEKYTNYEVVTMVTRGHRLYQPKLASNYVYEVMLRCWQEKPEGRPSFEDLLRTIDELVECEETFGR
Kind of experiment: Inhibition of a panel of kinases, in vitro HotSpot kinase assay: TEC. As to conditions: D-compounds panel data; 1 μM ATP. On the procedure: (§1) The degree of inhibition of a panel of kinases is determined using the in vitro HotSpot kinase assay (purified enzymes, ^33P-ATP, an appropriate substrate and 1 μM ATP).

A further experiment has as its target T2, ITK (Homo sapiens, UniProt Q08881).
T2 sequence (Q08881 1-620): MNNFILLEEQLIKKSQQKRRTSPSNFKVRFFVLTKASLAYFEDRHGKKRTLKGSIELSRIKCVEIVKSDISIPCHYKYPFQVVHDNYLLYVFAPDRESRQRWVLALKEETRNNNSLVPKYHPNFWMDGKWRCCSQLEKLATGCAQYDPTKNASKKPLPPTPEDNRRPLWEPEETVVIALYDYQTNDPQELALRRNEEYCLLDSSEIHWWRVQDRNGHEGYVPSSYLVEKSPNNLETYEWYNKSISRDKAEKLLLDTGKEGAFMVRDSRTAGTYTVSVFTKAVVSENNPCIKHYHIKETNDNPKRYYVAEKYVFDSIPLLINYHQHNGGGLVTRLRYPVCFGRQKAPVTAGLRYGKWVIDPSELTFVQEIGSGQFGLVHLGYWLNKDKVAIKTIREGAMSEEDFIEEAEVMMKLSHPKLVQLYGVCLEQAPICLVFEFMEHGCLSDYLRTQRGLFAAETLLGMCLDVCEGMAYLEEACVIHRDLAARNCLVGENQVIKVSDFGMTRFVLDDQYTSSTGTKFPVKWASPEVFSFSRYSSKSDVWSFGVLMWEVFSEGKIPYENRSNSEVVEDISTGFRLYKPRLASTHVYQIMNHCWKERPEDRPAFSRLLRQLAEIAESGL
The experiment can be described thus: Inhibition of a panel of kinases, in vitro HotSpot kinase assay: ITK. As to conditions: D-compounds panel data; 1 μM ATP. Here is the method: as §1

SMILES strings stand for the structures. pIC50: −log10 of the molar value. Where only a bound is given, the exact number is not on record here.

The pIC50 is −log10 of the IC50, conventionally taken in molar units.

LCK, sequence (P06239 whole entry): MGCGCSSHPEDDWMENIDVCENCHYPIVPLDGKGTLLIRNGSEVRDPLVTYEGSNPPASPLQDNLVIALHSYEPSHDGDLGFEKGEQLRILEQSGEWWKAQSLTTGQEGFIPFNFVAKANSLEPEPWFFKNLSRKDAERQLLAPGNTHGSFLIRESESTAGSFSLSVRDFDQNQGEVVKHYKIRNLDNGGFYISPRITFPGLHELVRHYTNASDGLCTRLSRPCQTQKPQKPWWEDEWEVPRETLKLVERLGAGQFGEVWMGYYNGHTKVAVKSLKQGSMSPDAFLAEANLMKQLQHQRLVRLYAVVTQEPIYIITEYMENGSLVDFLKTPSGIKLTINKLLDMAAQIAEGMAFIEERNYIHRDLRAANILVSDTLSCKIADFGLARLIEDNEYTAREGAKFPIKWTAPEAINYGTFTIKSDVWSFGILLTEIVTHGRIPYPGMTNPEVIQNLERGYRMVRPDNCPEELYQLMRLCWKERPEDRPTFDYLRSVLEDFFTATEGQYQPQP

For the compound `CC(=O)NC(C)(C)c1ccc(C(=O)N[C@@H]2CCCN(c3cnc(C(N)=O)c(Nc4cnn(C)c4)n3)[C@@H]2C)cc1` [Example D-107, 5-[(2R,3R)-3-[4-(2-acetamidopropan-2-yl)benzamido]-2-methylpiperidin-1-yl]-3-[(1-methyl-1H-pyrazol-4-yl)amino]pyrazine-2-carboxamide], the pIC50 on LCK was 6.00 to 7.00; on TEC, no less than 8.00; against ITK, 6.00 to 7.00.
For the compound `C[C@@H]1[C@H](NC(=O)c2ccc(C3CC3)cc2)CCCN1c1cnc(C(N)=O)c(Nc2ccc(OC3C[C@H]4CC[C@@H](C3)N4C)cc2)n1` (stereo partly drawn) [Example D-106, 5-[(2R,3R)-3-(4-cyclopropylbenzamido)-2-methylpiperidin-1-yl]-3-[(4-{[(1R,5S)-8-methyl-8-azabicyclo[3.2.1]octan-3-yl]oxy}phenyl)amino]pyrazine-2-carboxamide], the pIC50 is 7.00 to 8.00 on LCK, no less than 8.00 against TEC and 7.00 to 8.00 against ITK.
Regarding `C[C@H]1CC[C@@H](NC(=O)c2ccc(C3CC3)cc2)CN1c1cnc(C(N)=O)c(Nc2cnn(C)c2)n1` [Example D-142, 5-[(2S,5R)-5-(4-cyclopropylbenzamido)-2-methylpiperidin-1-yl]-3-[(1-methyl-1H-pyrazol-4-yl)amino]pyrazine-2-carboxamide], the values for the pIC50 on LCK, on TEC and against ITK were 7.00 to 8.00, 7.00 to 8.00 and 5.00 to 6.00, respectively.
For the compound `CN(C)c1ccc2c(c1)CCN([C@@H]1CCCN(c3cnc(C(N)=O)c(Nc4cnn(C)c4)n3)C1)C2=O` [Example D-156, 5-[(3R)-3-[6-(dimethylamino)-1-oxo-1,2,3,4-tetrahydroisoquinolin-2-yl]piperidin-1-yl]-3-[(1-methyl-1H-pyrazol-4-yl)amino]pyrazine-2-carboxamide], the pIC50 on LCK is 5.00 to 6.00; against TEC it was 7.00 to 8.00; against ITK, 6.00 to 7.00.
Take `Cc1cccc(-c2cnc(C3CCCN(c4cnc(C(N)=O)c(Nc5cnn(C)c5)n4)C3)[nH]2)c1` [Example D-148, 3-[(1-methyl-1H-pyrazol-4-yl)amino]-5-{3-[5-(3-methylphenyl)-1H-imidazol-2-yl]piperidin-1-yl}pyrazine-2-carboxamide]: the values for the pIC50 on LCK, against TEC and against ITK were 6.00 to 7.00, 6.00 to 7.00 and 5.00 to 6.00, respectively.
Turning to `C[C@@H]1[C@H](NC(=O)N(C)C)CCCN1c1cnc(C(N)=O)c(Nc2ccc(CN3CCN(C)CC3)cc2)c1` [Example D-120, 5-[(2R,3R)-3-[(dimethylcarbamoyl)amino]-2-methylpiperidin-1-yl]-3-({4-[(4-methylpiperazin-1-yl)methyl]phenyl}amino)pyridine-2-carboxamide], the pIC50 on LCK was 5.00 to 6.00; at TEC it was less than 5.00; against ITK it was 5.00 to 6.00.
Turning to `C[C@@H]1CC[C@H](NC(=O)c2ccc(C3CC3)cc2)CN1c1cnc(C(N)=O)c(Nc2cnn(C)c2)n1` [Example D-145, 5-[(2R,5S)-5-(4-cyclopropylbenzamido)-2-methylpiperidin-1-yl]-3-[(1-methyl-1H-pyrazol-4-yl)amino]pyrazine-2-carboxamide], the pIC50 at LCK is 5.00 to 6.00; against TEC it was 5.00 to 6.00; at ITK it was less than 5.00.
On to `C[C@@H]1[C@H](NC(=O)c2ccc(C3CC3)cc2F)CCCN1c1cnc(C(N)=O)c(Nc2ccc3ncccc3c2)n1` [Example D-114, 5-[(2R,3R)-3-(4-cyclopropyl-2-fluorobenzamido)-2-methylpiperidin-1-yl]-3-[(quinolin-6-yl)amino]pyrazine-2-carboxamide], for which the pIC50 on LCK was less than 5.00; against TEC, 7.00 to 8.00; on ITK, less than 5.00.
Consider `C[C@@H]1[C@H](NC(=O)c2ccc(C3CC3)cc2F)CCCN1c1cnc(C(N)=O)c(Nc2ccc(C3(C)CCN(C4CC4)CC3)cc2)n1` [Example D-138, 5-[(2R,3R)-3-(4-cyclopropyl-2-fluorobenzamido)-2-methylpiperidin-1-yl]-3-{[4-(1-cyclopropyl-4-methylpiperidin-4-yl)phenyl]amino}pyrazine-2-carboxamide], for which the pIC50 on LCK is 7.00 to 8.00; at TEC it was 7.00 to 8.00; at ITK it was 6.00 to 7.00.
For the compound `C[C@@H]1[C@H](NC(=O)c2ccc(C3CC3)cc2)CCCN1c1cnc(C(N)=O)c(Nc2ccc(N3CCN(C)CC3)c(F)c2)n1` [Example D-146, 5-[(2R,3R)-3-(4-cyclopropylbenzamido)-2-methylpiperidin-1-yl]-3-{[3-fluoro-4-(4-methylpiperazin-1-yl)phenyl]amino}pyrazine-2-carboxamide], the pIC50 on LCK, against TEC and against ITK was 7.00 to 8.00 throughout.
Regarding `Cc1ccc(-c2cnc([C@H]3CCCN(c4cnc(C(N)=O)c(Nc5cc(C)ns5)n4)C3)[nH]2)cc1` [Example D-136, 3-[(3-methyl-1,2-thiazol-5-yl)amino]-5-[(3S)-3-[5-(4-methylphenyl)-1H-imidazol-2-yl]piperidin-1-yl]pyrazine-2-carboxamide], the pIC50 at LCK was 6.00 to 7.00; at TEC, 6.00 to 7.00; against ITK it was 5.00 to 6.00.
Take `C[C@@H]1[C@H](NC(=O)c2ccc(C3CC3)cc2)CCCN1c1cnc(C(N)=O)c(Nc2ccc(N3CCC(C(C)(C)O)CC3)cc2)n1` [Example D-100, 5-[(2R,3R)-3-(4-cyclopropylbenzamido)-2-methylpiperidin-1-yl]-3-({4-[4-(2-hydroxypropan-2-yl)piperidin-1-yl]phenyl}amino)pyrazine-2-carboxamide]: the pIC50 at LCK was 6.00 to 7.00; on TEC it was no less than 8.00; at ITK, 6.00 to 7.00.
In the case of `C[C@@H]1[C@H](NC(=O)N(C)C)CCCN1c1cnc(C(N)=O)c(Nc2ccc(C(=O)N3CCN(C)CC3)cc2)n1` [Example D-110, 5-[(2R,3R)-3-[(dimethylcarbamoyl)amino]-2-methylpiperidin-1-yl]-3-{[4-(4-methylpiperazine-1-carbonyl)phenyl]amino}pyrazine-2-carboxamide], the pIC50 is 6.00 to 7.00 on LCK, 6.00 to 7.00 against TEC and 5.00 to 6.00 at ITK.
Turning to `Cc1nsc(Nc2nc(N3CCC[C@@H](NC(=O)N(C)C)[C@H]3C)cnc2C(N)=O)c1C` [Example D-119, 3-[(dimethyl-1,2-thiazol-5-yl)amino]-5-[(2R,3R)-3-[(dimethylcarbamoyl)amino]-2-methylpiperidin-1-yl]pyrazine-2-carboxamide], the pIC50 at LCK was 5.00 to 6.00; against TEC it was less than 5.00; at ITK it was less than 5.00.
As for `C[C@@H]1[C@H](NC(=O)c2ccc(C3CC3)cc2)CCCN1c1cnc(C(N)=O)c(Nc2ccc(C3(C)CCN(C4CCCC4)CC3)cc2)n1` [Example D-112, 3-{[4-(1-cyclopentyl-4-methylpiperidin-4-yl)phenyl]amino}-5-[(2R,3R)-3-(4-cyclopropylbenzamido)-2-methylpiperidin-1-yl]pyrazine-2-carboxamide], the pIC50 was greater than 8.00 at LCK, no less than 8.00 at TEC and 7.00 to 8.00 at ITK.
For the compound `C[C@@H]1[C@H](NC(=O)c2ccc(C3CC3)cc2)CCCN1c1cnc(C(N)=O)c(Nc2ccc(N3CCN(C)CC3)cc2F)n1` [Example D-103, 5-[(2R,3R)-3-(4-cyclopropylbenzamido)-2-methylpiperidin-1-yl]-3-{[2-fluoro-4-(4-methylpiperazin-1-yl)phenyl]amino}pyrazine-2-carboxamide], the pIC50 at LCK, against TEC and against ITK was 6.00 to 7.00 each time.
On to `C[C@@H]1[C@H](NC(=O)c2ccc(C3CC3)cc2F)CCCN1c1cnc(C(N)=O)c(Nc2ccc(N3CCN(C)CC3=O)cc2)n1` [Example D-10, 5-[(2R,3R)-3-(4-cyclopropyl-2-fluorobenzamido)-2-methylpiperidin-1-yl]-3-{[4-(4-methyl-2-oxopiperazin-1-yl)phenyl]amino}pyrazine-2-carboxamide], for which the pIC50 was 6.00 to 7.00 at LCK, 7.00 to 8.00 against TEC and 6.00 to 7.00 against ITK.

The values are drawn from patent publication US20210070748A1, “INHIBITORS OF BRUTONS TYROSINE KINASE” (Pharmacyclics LLC, priority 2015, published 2021).
